Results taken from paper PMC12348107, “Saponins from Oxybasis rubra (L.) S.Fuentes, Uotila & Borsh: Comparative Assessment of Cytotoxic Potential Against a Wide Panel of Cancer Cell Lines” (Molecules, 2025).
Several values for one entry are separate records, joined by “and”; a condition that tells them apart may be missing. Equal values may be shown once. Read-outs that look alike come from different tables or passages of the source.

Legend:
[1] = tested on: A549 lung carcinoma cells; assay: LDH cytotoxicity assay, A549; assay type: cell-based, human; conditions: Homo sapiens, LDH test, read-out: Cytotoxic activity expressed as IC50
Method: (§1) The cytotoxic activity was tested on human cancer and normal cell lines, grouped in several panels: skin (malignant melanoma HTB-140, malignant melanoma A375, melanoma WM793, and normal keratinocytes HaCaT), prostate (prostate carcinoma DU-145, prostate carcinoma PC3, and prostate epithelial cells PNT2), thyroid (thyroid carcinoma FTC133, thyroid carcinoma, undifferentiated 8505C), gastrointestinal panel (hepatocellular carcinoma HepG2, colon adenocarcinoma Caco-2, and colon adenocarcinoma HT29), and single line of lung carcinoma A549. Cells were grown at standard conditions (37 °C, 5% CO2, relative humidity) and culture media (DMEM/F12 for PNT2, WM793, HT29, A549; DMEM Low Glucose for DU-145; DMEM High Glucose for A375, HaCaT, A549; MEM with NEAA for Caco-2), supplemented with 10% fetal bovine serum (FBS) and 1% antibiotic solution (10,000 U penicillin and 10 mg streptomycin/mL). All cell lines, cell culture media, and supplements were from Merck (Seelze, Germany).
(§2) Before the experiment, cells were seeded onto 96-well plates for 24 h, at a density of 1.5 × 10^4 cells/ well. Then the tested compounds (5–100 μg/mL) were added and incubated for 24 and 48 h. Cell viability was measured with the lactate dehydrogenase (LDH) assay by Clontech (Clontech, Mountain View, CA, USA), as described previously. The absorbance was measured at 490 nm using a Biotek Synergy microplate reader (BioTek Instruments Inc., Winooski, VT, USA). Cell viability was expressed as a percentage of dead cells. Each experiment was conducted in triplicate. Doxorubicin was used as a reference cytostatic.
(§3) The results were expressed as mean (±SD). Data were analyzed using Statistica v.13.3 (StatSoft, Tulsa, OK, USA). The IC50 values were calculated using OriginPro 2020b (64-bit) 9.7.5.184 (Academic) (OriginLab Corporation, Northampton, MA, USA). One-way analysis of variance (ANOVA) and the post-hoc Tukey multiple comparison test were used. The statistical significance was defined at the probability level of p < 0.05. Principal component analysis (PCA) and hierarchical cluster analysis (HCA) were performed using Statistica v.13.3 (StatSoft, Tulsa, OK, USA). Prior to PCA, the Bartlett’s sphericity test was conducted, and the Kaiser-Meyer-Olkin Measure of Sampling Adequacy index (KMO) was examined. In the simple model, for each compound tested (1–4), the cell lines were the cases, and the different concentrations of the compound were the parameters. This was followed by a PCA model in which the cell lines were the parameters, and the compounds (at different concentrations) were the cases. All PCA models were based on a correlation matrix. Hierarchical cluster analysis (CA) based on standardized data was performed using Ward’s method and Euclidean distance. The results were grouped based on Mojena’s rule.

[2] = tested on: HepG2 hepatocellular carcinoma cells; assay: LDH cytotoxicity assay, HepG2; assay type: cell-based; conditions: Homo sapiens, LDH test, read-out: Cytotoxic activity expressed as IC50
Method: as §1, §2, §3

[3] = tested on: HTB-140 malignant melanoma cells; assay: LDH cytotoxicity assay, HTB-140; assay type: cell-based; conditions: Homo sapiens, LDH test, read-out: Cytotoxic activity expressed as IC50
Method: as §1, §2, §3

[4] = LDH cytotoxicity assay, PNT2; assay type: cell-based, human; conditions: human, PNT2 prostate epithelial cells (normal), PNT2 normal cells, LDH test, read-out: Cytotoxic activity expressed as IC50; for IC50 at 24 h: 24 h incubation
Method: as §1, §2, §3

[5] = tested on: HT29 colon adenocarcinoma cells; assay: LDH cytotoxicity assay, HT29; assay type: cell-based; conditions: Homo sapiens, HT-29, LDH test, read-out: Cytotoxic activity expressed as IC50
Method: as §1, §2, §3

[6] = tested on: DU-145 metastatic prostate carcinoma cells; assay: LDH cytotoxicity assay, DU-145; assay type: cell-based, human; conditions: Homo sapiens, LDH test, read-out: Cytotoxic activity expressed as IC50
Method: as §1, §2, §3

[7] = tested on: A375 malignant melanoma cells; assay: LDH cytotoxicity assay, A375; assay type: cell-based; conditions: Homo sapiens, A-375, LDH test, read-out: Cytotoxic activity expressed as IC50
Method: as §1, §2, §3

[8] = tested on: Caco-2 colon adenocarcinoma cells; assay: LDH cytotoxicity assay, Caco-2; assay type: cell-based; conditions: Homo sapiens, LDH test, read-out: Cytotoxic activity expressed as IC50
Method: as §1, §2, §3

[9] = tested on: PC3 metastatic prostate carcinoma cells; assay: LDH cytotoxicity assay, PC3; assay type: cell-based; conditions: Homo sapiens, LDH test, read-out: Cytotoxic activity expressed as IC50
Method: as §1, §2, §3

[10] = LDH cytotoxicity assay, HaCaT; assay type: cell-based, human; conditions: human, HaCaT normal keratinocytes, HaCaT normal cells, LDH test, read-out: Cytotoxic activity expressed as IC50; for IC50 at 24 h: 24 h incubation
Method: as §1, §2, §3

[11] = tested on: FTC133 follicular thyroid carcinoma cells; assay: LDH cytotoxicity assay, FTC133; assay type: cell-based; conditions: Homo sapiens, FTC-133, LDH test, read-out: Cytotoxic activity expressed as IC50
Method: as §1, §2, §3

[12] = tested on: WM793 primary melanoma cells; assay: LDH cytotoxicity assay, WM793; assay type: cell-based; conditions: Homo sapiens, LDH test, read-out: Cytotoxic activity expressed as IC50
Method: as §1, §2, §3

[13] = tested on: 8505C undifferentiated thyroid carcinoma cells; assay: LDH cytotoxicity assay, 8505C; assay type: cell-based; conditions: Homo sapiens, LDH test, read-out: Cytotoxic activity expressed as IC50
Method: as §1, §2, §3

[14] = A549, 24 h, A549, 24 h incubation

With `CC1(C)CC[C@]2(C(=O)O)CC[C@]3(C)C(=CC[C@@H]4[C@@]5(C)CC[C@H](O)[C@@](C)(CO)[C@@H]5CC[C@]43C)[C@@H]2C1` [Compound 4, hederagenin] the IC50 [1, 14] was greater than 100 µg/mL, the IC50 ([1]; A549, 48 h, A549, 48 h incubation) was 208 µM and 98.2 µg/mL and the IC50 ([2]; HepG2, 24 h incubation) was greater than 100 µg/mL. The IC50 ([2]; HepG2, 48 h incubation) was greater than 100 µg/mL, the IC50 ([3]; HTB-140, 24 h incubation) was greater than 100 µg/mL and the IC50 ([3]; HTB-140, 48 h incubation) was greater than 100 µg/mL. The IC50 at 24 h [4] was 195 µM and 92 µg/mL, the IC50 at 48 h ([4]; 48 h incubation) was 159 µM and 75.1 µg/mL and the IC50 ([5]; HT29, 24 h incubation) was greater than 100 µg/mL. For the same molecule, the IC50 ([5]; HT29, 48 h incubation) was 191 µM and 90.3 µg/mL, the IC50 ([6]; DU-145, 24 h incubation) was 109 µM and 51.5 µg/mL and the IC50 ([6]; DU-145, 48 h incubation) was 42.9 µM and 20.3 µg/mL. The IC50 ([7]; A375, 24 h incubation) was greater than 100 µg/mL, the IC50 ([7]; A375, 48 h incubation) was greater than 100 µg/mL and the IC50 ([8]; Caco-2, 24 h incubation) was 191 µM and 90.1 µg/mL. For the same molecule, the IC50 ([8]; Caco-2, 48 h incubation) was 158 µM and 74.9 µg/mL, the IC50 ([9]; PC3, 24 h incubation) was greater than 100 µg/mL and the IC50 ([9]; PC3, 48 h incubation) was 164 µM and 77.7 µg/mL. The IC50 at 24 h [10] was greater than 100 µg/mL, the IC50 at 48 h ([10]; 48 h incubation) was greater than 100 µg/mL and the IC50 ([11]; FTC133, 24 h incubation) was greater than 100 µg/mL. It also gave an IC50 ([11]; FTC133, 48 h incubation) greater than 100 µg/mL, an IC50 ([12]; WM793, 24 h incubation) greater than 100 µg/mL and an IC50 ([12]; WM793, 48 h incubation) greater than 100 µg/mL. For the same molecule, the IC50 ([13]; 24 h incubation) was greater than 100 µg/mL and the IC50 ([13]; 48 h incubation) was greater than 100 µg/mL.

With `COc1cccc2c1C(=O)c1c(O)c3c(c(O)c1C2=O)C[C@@](O)(C(=O)CO)C[C@@H]3O[C@H]1C[C@H](N)[C@H](O)[C@H](C)O1` [DOX, doxorubicin] the IC50 [1, 14] was 2.01 µM and 1.09 µg/mL, the IC50 ([2]; HepG2, 24 h incubation) was 2.05 µM and 1.11 µg/mL and the IC50 ([3]; HTB-140, 24 h incubation) was 9.03 µM and 4.91 µg/mL. For the same molecule, the IC50 at 24 h [4] was 2.01 µM and 1.09 µg/mL, the IC50 ([5]; HT29, 24 h incubation) was 2.06 µM and 1.12 µg/mL and the IC50 ([6]; DU-145, 24 h incubation) was 4.53 µM and 2.46 µg/mL. For the same molecule, the IC50 ([7]; A375, 24 h incubation) was 790 nM and 0.43 µg/mL, the IC50 ([8]; Caco-2, 24 h incubation) was 5.43 µM and 2.95 µg/mL and the IC50 ([9]; PC3, 24 h incubation) was greater than 40 µg/mL. For the same molecule, the IC50 at 24 h [10] was 7.75 µM and 4.21 µg/mL, the IC50 ([11]; FTC133, 24 h incubation) was 8.56 µM and 4.65 µg/mL and the IC50 ([12]; WM793, 24 h incubation) was greater than 40 µg/mL. For the same molecule, the IC50 ([13]; 24 h incubation) was greater than 40 µg/mL.
